In paper PMC7801526, “Cryo-EM structure of Helicobacter pylori urease with an inhibitor in the active site at 2.0 Å resolution” (Nature Communications, 2021):

Assays:
[1] = target: T1, urease, catalytic subunit UreB (Helicobacter pylori, UniProt P69996); assay: cryo-EM structure at […] Å; phenol red assay on purified urease (IC50 […], Ki by Cheng-Prusoff); assay type: biochemical
T1 construct: with UreA

[2] = target: T1, urease, catalytic subunit UreB; assay: phenol red assay on purified urease (IC50 […], Ki by Cheng-Prusoff); assay type: biochemical

T1 sequence (P69996 whole entry): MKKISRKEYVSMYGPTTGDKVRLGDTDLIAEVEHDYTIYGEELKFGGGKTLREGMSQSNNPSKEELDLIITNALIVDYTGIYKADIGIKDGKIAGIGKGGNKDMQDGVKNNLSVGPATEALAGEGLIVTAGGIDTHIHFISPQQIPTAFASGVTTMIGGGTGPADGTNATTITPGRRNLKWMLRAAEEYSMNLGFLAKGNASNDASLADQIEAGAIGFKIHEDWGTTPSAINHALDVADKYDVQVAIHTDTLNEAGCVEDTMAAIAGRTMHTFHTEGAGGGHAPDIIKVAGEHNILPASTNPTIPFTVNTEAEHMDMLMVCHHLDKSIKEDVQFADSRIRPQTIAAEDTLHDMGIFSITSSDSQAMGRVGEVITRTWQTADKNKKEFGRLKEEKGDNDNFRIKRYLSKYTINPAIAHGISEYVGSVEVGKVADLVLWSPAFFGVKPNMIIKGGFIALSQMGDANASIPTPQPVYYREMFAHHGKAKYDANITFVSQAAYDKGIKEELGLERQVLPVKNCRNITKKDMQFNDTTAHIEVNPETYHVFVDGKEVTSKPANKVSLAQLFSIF
T1 sequence (P14916 whole entry, further chain): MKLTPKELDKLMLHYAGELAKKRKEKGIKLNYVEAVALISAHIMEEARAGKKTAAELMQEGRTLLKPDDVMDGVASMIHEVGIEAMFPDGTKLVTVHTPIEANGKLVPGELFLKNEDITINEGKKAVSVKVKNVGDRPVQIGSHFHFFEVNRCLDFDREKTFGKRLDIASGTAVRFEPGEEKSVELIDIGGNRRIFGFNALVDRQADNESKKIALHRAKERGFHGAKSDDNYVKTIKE

Structure (SMILES) | Ki [1] [µM] | Ki [2] [µM]
OCCS [BME, β-mercaptoethanol] | 435 | –
Cc1cc(C)cc(-n2ccnc2SCC(=O)NO)c1 [SHA, 2-{[1-(3,5-dimethylphenyl)-1H-imidazol-2-yl]sulfanyl}-N-hydroxyacetamide] | – | 0.63
